What was measured:
[1] = test system: EP4 receptor on aged myofibers; test: SW treatment of aged EP4f/f mice with MCK-Cre ablation of EP4 in myofibers; format: in vivo, mouse; settings: loss of EP4 expression in myofibers, SW one month
Description: We performed all experiments and protocols in compliance with the institutional guidelines of Stanford University and Administrative Panel on Laboratory Animal Care (APLAC). Middle aged (18-20 mo.) and aged (>24 mo.) mice C57BL/6 were obtained the US National Institute on Aging (NIA) for aged muscle studies, and young (2-4 mo.) wild-type C57BL/6 mice from Jackson Laboratory. INK-ATTAC mice were generated as previously described (1). INK-ATTAC healthspan assessments. INK-ATTAC mice were crossed onto the C57BL6/J genetic background and maintained in specific-pathogen free housing on a 12-hour dark/light cycle for study duration. At 12 months of age, male mice were either utilized for baseline healthspan assessments and terminal muscle harvest or randomized to receive twice-weekly vehicle or AP20187 (2 mg/kg intraperitoneal injection; B/B homodimerizer, Clontech) until assessment and sacrifice at 28 months of age (2). […] Time and distance to exhaustion was performed as previously described (4) for SW-treated mice and their controls. […]
The peak isometric torque (N·mm) of the ankle plantarflexors was assessed as previously described (21, 22). […]

[2] = test system: bone marrow, colon, lung, and liver; settings: cited from earlier work

In the case of `CCCC[S+]([O-])c1sc2nc(-c3cccs3)cc(-c3ccccc3)c2c1N` (stereo not drawn) [SW033291, 2-(butylsulfinyl)-4-phenyl-6-(thiophen-2-yl)thieno[2,3-b]pyridin-3-amine], the “beneficial effect on muscle mass” value [1] is given as “abrogated”, the “beneficial effect on muscle strength” value [1] is given as “abrogated” and the “increase of PGE2 levels in vivo” value [2] is given as 2 fold.
